# Values quoted from earlier work in patent US8916194B2 (Lupin Limited, priority 2010, dated 2014).
# Conditions: in vivo
smiles,measurement,value
"CCN(CC)C(=O)C1(c2ccccc2)CC1CN (stereo not drawn) [Milnacipran, cis-2-amino methyl-N, N-diethyl-1-phenyl cyclopropane carboxamide]",half-life,~8 h
